# Source: patent publication US20100087768A1, “TRANSDERMAL DRUG DELIVERY SYSTEM FOR LIQUID ACTIVE INGREDIENT” (priority 2008, published 2010)
# Where “and” joins values, the source holds several entries; their conditions need not be identical. Identical values can stand only once. Like-named read-outs stand apart in the source and are kept apart here.
# What was measured:
# [1] = Shear adhesion / holding power (PSTC-7) of plain adhesives and transdermal devices; format: physicochemical
# Description: Holding power (shear adhesion): The ability of a tape to resist the static forces applied in the same plane as the backing. Usually expressed in a time required for a given weight per unit area to cause a given amount of tape to come loose from a vertical panel.
# Throughout this specification, including the claims, the adhesive properties of shear adhesion and peel adhesion are measured employing the test methods adopted by the PSTC (Pressure Sensitive Tape Council) for Peel Adhesion (PSTC-1 Peel Adhesion of Single Coated Pressure Sensitive Tapes at 180° Angle) and Shear Adhesion (PSTC-7 Holding Power of Pressure Sensitive Tapes). The unit for peel adhesion is newtons/inch, and the unit for holding power (shear adhesion) is minutes. The test of holding power is performed under a load of 4 lbs/in^2 (28 kPa) and at 72° F. (22° C.).
# Adhesive properties were measured as described above. The plain adhesive values given are those of the dry adhesive polymer composition without added components.
# [2] = Loss of selegiline during manufacture (after drying), HPLC; format: physicochemical; settings: up to 15%
# Description: Lots with DT 87-2353 as adhesive, selegiline and increasing amounts of squalene (SQ) and triethylcitrate (TEC) were manufactured as described in “Description of the manufacturing process” above and the amount of selegiline present after drying was measured.
# Selegiline content was analysed by HPLC using a suitable technique
# [3] = General appearance of patches with non-volatile coadjuvants (visual and tactile inspection); format: physicochemical; settings: selegiline patches in DT 87-2353
# shaved skin = assay: Evaluation of dermal irritation in rabbits (Example 3); format: in vivo, rabbits (New Zealand Albino); parameters: key to Score for Skin Erythema 1 h / Score for Skin Erythema 2 h / Score for Skin Erythema 4 h / Score for Skin Erythema 6 h / Score for Skin Erythema 8 h / Score for Skin Erythema 24 h: 0: No redness (erythema).; 1: Barely perceptible redness.; 2: Well defined redness.; 3: Severe Erythema (beet redness) to slight eschar formation (injuries in depth)
# Description: Dermal irritation was tested using transdermal delivery devices manufactured as described in “Description of the manufacturing process” above with acrylic adhesives with different functionality and 15% of selegiline, all of them with shear value of more than 1.5 hours and less than 15 hours for the plain adhesive and without crosslinker agents (see Table 3). Each formulation was tested on 6 rabbits, with evaluations at 1, 2, 4, 6, 8 and 24 hrs. The degree of adhesion and glue residue was also evaluated with skin reactions on an open-label 1-day-study. Rabbits belonging to the New Zealand Albino strain were used as animal model. According protocol, and after 14 days of acclimatization, the fur of back of 6 male rabbits was thoroughly shaved. Twenty four hours later one patch of each formulation of 10.6 cm^2 was glued in each rabbit to the shaved skin, according to a randomized schedule.
# Pure selegiline (25 μl) was used as control covered by Transpore tape (from 3M).
# The irritation observed was classified according to the following scoring system: • Scale used for scoring erythema: • 0: No redness (erythema). • 1: Barely perceptible redness. • 2: Well defined redness. • 3: Severe Erythema (beet redness) to slight eschar formation (injuries in depth).
# Reactions were scored as if they were covering the entire skin area treated (maximum score).
# The Dermal Irritation Index (DII) was calculated as the average of the individual data at each evaluation time.
# The dermal irritation indexes obtained were interpreted following ISO/WD 10993-10: […]
# [4] = 1% selegiline in the coadjuvant, seven days at 40° C.
# [5] = 1% selegiline in the coadjuvant, seven days at 40° C., control pure selegiline
compound,measurement,setting,value
"CCN(C)C(=O)Oc1cccc([C@H](C)N(C)C)c1 [Rivastigmine, rivastigmine]",Effect of the drug on cohesiveness of the adhesives (measured by the shear test),[1],reduces the cohesiveness in all the adhesives
"CCOC(=O)CC(O)(CC(=O)OCC)C(=O)OCC [TEC, triethylcitrate]","Effect of coadjuvant on selegiline loss during drying, in words",[2],diminishes the amount of active drug loss during drying in a concentration dependent manner
same,Amount up to which the coadjuvant is suitable,[3],up to 15%
same,Impurity rrt: 1.56,[4],0.42%
same,Impurity rrt: 2.09,[4],0.98%
same,Selegiline base (chromatographic purity),[5],98.58%
"C#CCN(C)[C@H](C)Cc1ccccc1 [pure selegiline, selegiline]",Effect of the drug on cohesiveness of the adhesives (measured by the shear test),[1],reduces the cohesiveness in all the adhesives
same,Score for Skin Erythema 1 h,"shaved skin; individual rabbits 1-6, 10.6 cm^2 patch, 1 h",0
same,Score for Skin Erythema 2 h,"shaved skin; individual rabbits 1-6, 2 h",0 (5×) and 1
same,Score for Skin Erythema 4 h,"shaved skin; individual rabbits 1-6, 4 h",0 (5×) and 1
same,Score for Skin Erythema 6 h,"shaved skin; individual rabbits 1-6, 6 h",0 (3×) and 1 (3×)
same,Score for Skin Erythema 8 h,"shaved skin; individual rabbits 1-6, 8 h",1
same,Score for Skin Erythema 24 h,"shaved skin; individual rabbits 1-6, 24 h",1 (5×) and 0
same,DII (Dermal Irritation Index),"shaved skin; individual rabbits 1-6, average over evaluation times",0.3 (4×) and 0.5 and 0.8
same,Erythema Score 1 h,"shaved skin; mean of 6 rabbits, 1 h",0.0
same,Erythema Score 2 h,"shaved skin; mean of 6 rabbits, 2 h",0.2
same,Erythema Score 4 h,"shaved skin; mean of 6 rabbits, 4 h",0.2
same,Erythema Score 6 h,"shaved skin; mean of 6 rabbits, 6 h",0.5
same,Erythema Score 8 h,"shaved skin; mean of 6 rabbits, 8 h",1.0
same,Erythema Score 24 h,"shaved skin; mean of 6 rabbits, 24 h",0.8
same,"DII (Dermal Irritation Index), Erythema Score line","shaved skin; overall, 6 rabbits, all times",0.4
same,Impurity (any secondary peak),,≦0.05%
same,Selegiline base (chromatographic purity),,99.98%
CC(C)=CCC/C(C)=C/CC/C(C)=C/CC/C=C(\C)CC/C=C(\C)CCC=C(C)C [squalene],"Effect of coadjuvant on selegiline loss during drying, in words",[2],diminishes the amount of active drug loss during drying in a concentration dependent manner
same,Amount up to which the coadjuvant is suitable,[3],up to 15%
same,Impurity rrt: 2.04,[4],0.07%
same,Selegiline base (chromatographic purity),[5],99.89%
